Where “and” joins values, the source holds several entries; their conditions need not be identical. Equal values may be shown once. Values belong to the compound of their own block, whether it stands above or below them.
System: 435261-313-R-J1-PDC tumor spheroid viability
Experiment: Anticancer human tumor 435261-313-R-J1-PDC patient-derived colon adenocarcinoma cell line growth inhibition [PI3K]
Settings: spheroids with HUVEC and MSC; for viability, T/C: stronger effect = lower value
Method in brief: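 Targeted small molecules plus PI3K inhibitors, half-log dose series from Cmax (default top 10 microM), were applied to heterotypic spheroids of cancer cells with HUVEC and MSCs. Viability indicated growth inhibition.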

[1] = curve of first compound, second compound 0.0316 µM
[2] = curve of first compound, second compound 0.1 µM
[3] = curve of first compound, second compound 0.316 µM
[4] = curve of first compound, second compound 1 µM
[5] = curve of first compound, second compound 3.16 µM
[6] = curve of first compound, second compound 10 µM
[7] = second compound 0.0316 µM, first compound 0.000316 µM
[8] = second compound 0.0316 µM, first compound 0.001 µM
[9] = second compound 0.0316 µM, first compound 0.00316 µM
[10] = second compound 0.0316 µM, first compound 0.01 µM
[11] = second compound 0.0316 µM, first compound 0.0316 µM
[12] = second compound 0.0316 µM, first compound 0.1 µM
[13] = second compound 0.1 µM, first compound 0.000316 µM
[14] = second compound 0.1 µM, first compound 0.001 µM
[15] = second compound 0.1 µM, first compound 0.00316 µM
[16] = second compound 0.1 µM, first compound 0.01 µM
[17] = second compound 0.1 µM, first compound 0.0316 µM
[18] = second compound 0.1 µM, first compound 0.1 µM
[19] = second compound 0.316 µM, first compound 0.000316 µM
[20] = second compound 0.316 µM, first compound 0.001 µM
[21] = second compound 0.316 µM, first compound 0.00316 µM
[22] = second compound 0.316 µM, first compound 0.01 µM
[23] = second compound 0.316 µM, first compound 0.0316 µM
[24] = second compound 0.316 µM, first compound 0.1 µM
[25] = second compound 1 µM, first compound 0.000316 µM
[26] = second compound 1 µM, first compound 0.001 µM
[27] = second compound 1 µM, first compound 0.00316 µM
[28] = second compound 1 µM, first compound 0.01 µM
[29] = second compound 1 µM, first compound 0.0316 µM
[30] = second compound 1 µM, first compound 0.1 µM
[31] = second compound 3.16 µM, first compound 0.000316 µM
[32] = second compound 3.16 µM, first compound 0.001 µM
[33] = second compound 3.16 µM, first compound 0.00316 µM
[34] = second compound 3.16 µM, first compound 0.01 µM
[35] = second compound 3.16 µM, first compound 0.0316 µM
[36] = second compound 3.16 µM, first compound 0.1 µM
[37] = second compound 10 µM, first compound 0.000316 µM
[38] = second compound 10 µM, first compound 0.001 µM
[39] = second compound 10 µM, first compound 0.00316 µM
[40] = second compound 10 µM, first compound 0.01 µM
[41] = second compound 10 µM, first compound 0.0316 µM
[42] = second compound 10 µM, first compound 0.1 µM
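Note: spheroids exposed to compounds for 7 days.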

- IC50 [1]: > 100 nM
- IC50 [2]: > 100 nM
- IC50 [3]: 6.18 nM
- IC50 [4]: < 0.316 nM
- IC50 [5]: < 0.316 nM
- IC50 [6]: < 0.316 nM
Structure (SMILES): Cn1ncnc1[C@H]1c2n[nH]c(=O)c3cc(F)cc(c23)N[C@@H]1c1ccc(F)cc1 + Cc1nc(NC(=O)N2CCCC2C(N)=O)sc1-c1ccnc(C(C)(C)C(F)(F)F)c1
- viability, T/C [7]: 81.6%
- viability, T/C [8]: 65%
- viability, T/C [9]: 79.8%
- viability, T/C [10]: 77.1%
- viability, T/C [11]: 79.1%
- viability, T/C [12]: 66.4%
- viability, T/C [13]: 63%
- viability, T/C [14]: 93.9%
- viability, T/C [15]: 65.5%
- viability, T/C [16]: 64.8%
- viability, T/C [17]: 66.4%
- viability, T/C [18]: 56.3%
- viability, T/C [19]: 35.8%
- viability, T/C [20]: 62.8%
- viability, T/C [21]: 49.4%
- viability, T/C [22]: 59.8%
- viability, T/C [23]: 39.4%
- viability, T/C [24]: 36.6%
- viability, T/C [25]: 36.5%
- viability, T/C [26]: 29.8%
- viability, T/C [27]: 24.6%
- viability, T/C [28]: 30.5%
- viability, T/C [29]: 26.9%
- viability, T/C [30]: 22.8%
- viability, T/C [31]: 16.4%
- viability, T/C [32]: 21.4%
- viability, T/C [33]: 17.5%
- viability, T/C [34]: 18.5%
- viability, T/C [35]: 18.4%
- viability, T/C [36]: 16.7%
- viability, T/C [37]: 10.5%
- viability, T/C [38]: 9.23%
- viability, T/C [39]: 7.91%
- viability, T/C [40]: 9.55%
- viability, T/C [41]: 9%
- viability, T/C [42]: 7.58%

- IC50 (curve of compound): 38 nM and 14.4 nM
Structure (SMILES): CC(C)n1nc(-c2ccc3oc(N)nc3c2)c2c(N)ncnc21
- viability, T/C (compound 0.000316 µM): 75.7% and 66.3%
- viability, T/C (compound 0.001 µM): 119% and 65.3%
- viability, T/C (compound 0.00316 µM): 86.6% and 58.6%
- viability, T/C (compound 0.01 µM): 67.3% and 48.3%
- viability, T/C (compound 0.0316 µM): 60.8% and 46.7%
- viability, T/C (compound 0.1 µM): 18.7% and 12.7%

- IC50 [1]: > 100 nM
- IC50 [2]: > 100 nM
- IC50 [3]: > 100 nM
- IC50 [4]: > 100 nM
- IC50 [5]: > 100 nM
- IC50 [6]: 34.5 nM
Structure (SMILES): CC(=O)c1c(C)c2cnc(Nc3ccc(N4CCNCC4)cn3)nc2n(C2CCCC2)c1=O + CC(Nc1ncnc2nc[nH]c12)c1cc2cccc(Cl)c2c(=O)n1-c1ccccc1
- viability, T/C [7]: 101%
- viability, T/C [8]: 125%
- viability, T/C [9]: 74.8%
- viability, T/C [10]: 94%
- viability, T/C [11]: 107%
- viability, T/C [12]: 84.1%
- viability, T/C [13]: 77.4%
- viability, T/C [14]: 84%
- viability, T/C [15]: 94.5%
- viability, T/C [16]: 101%
- viability, T/C [17]: 106%
- viability, T/C [18]: 64.9%
- viability, T/C [19]: 105%
- viability, T/C [20]: 72.7%
- viability, T/C [21]: 101%
- viability, T/C [22]: 90.1%
- viability, T/C [23]: 119%
- viability, T/C [24]: 69%
- viability, T/C [25]: 81.7%
- viability, T/C [26]: 57.1%
- viability, T/C [27]: 56.6%
- viability, T/C [28]: 92.3%
- viability, T/C [29]: 86.6%
- viability, T/C [30]: 62%
- viability, T/C [31]: 52.9%
- viability, T/C [32]: 79%
- viability, T/C [33]: 40.8%
- viability, T/C [34]: 63.1%
- viability, T/C [35]: 63.3%
- viability, T/C [36]: 41.3%
- viability, T/C [37]: 44.5%
- viability, T/C [38]: 54%
- viability, T/C [39]: 48.2%
- viability, T/C [40]: 56.1%
- viability, T/C [41]: 54.6%
- viability, T/C [42]: 32.2%

- IC50 [1]: 5470 nM
- IC50 [2]: 2130 nM
- IC50 [3]: 1060 nM
- IC50 [4]: < 31.6 nM
- IC50 [5]: < 31.6 nM
- IC50 [6]: < 31.6 nM
Structure (SMILES): C#Cc1c(F)ccc2cc(O)cc(-c3ncc4c(N5CC6CCC(C5)N6)nc(OCC56CCCN5CC(F)C6)nc4c3F)c12 (stereo not drawn) + Cc1nc(NC(=O)N2CCCC2C(N)=O)sc1-c1ccnc(C(C)(C)C(F)(F)F)c1
- viability, T/C [11]: 73.7%
- viability, T/C [12]: 78%
- viability, T/C (second compound 0.0316 µM, first compound 0.316 µM): 102%
- viability, T/C (second compound 0.0316 µM, first compound 1 µM): 49%
- viability, T/C (second compound 0.0316 µM, first compound 3.16 µM): 70.5%
- viability, T/C (second compound 0.0316 µM, first compound 10 µM): 35.6%
- viability, T/C [17]: 61.1%
- viability, T/C [18]: 77%
- viability, T/C (second compound 0.1 µM, first compound 0.316 µM): 98.3%
- viability, T/C (second compound 0.1 µM, first compound 1 µM): 58.2%
- viability, T/C (second compound 0.1 µM, first compound 3.16 µM): 43.8%
- viability, T/C (second compound 0.1 µM, first compound 10 µM): 18.4%
- viability, T/C [23]: 39.2%
- viability, T/C [24]: 67.5%
- viability, T/C (second compound 0.316 µM, first compound 0.316 µM): 46.2%
- viability, T/C (second compound 0.316 µM, first compound 1 µM): 51.7%
- viability, T/C (second compound 0.316 µM, first compound 3.16 µM): 27.1%
- viability, T/C (second compound 0.316 µM, first compound 10 µM): 12.6%
- viability, T/C [29]: 23.7%
- viability, T/C [30]: 27%
- viability, T/C (second compound 1 µM, first compound 0.316 µM): 28.4%
- viability, T/C (second compound 1 µM, first compound 1 µM): 27.9%
- viability, T/C (second compound 1 µM, first compound 3.16 µM): 13.9%
- viability, T/C (second compound 1 µM, first compound 10 µM): 7.05%
- viability, T/C [35]: 17.1%
- viability, T/C [36]: 19.7%
- viability, T/C (second compound 3.16 µM, first compound 0.316 µM): 11.3%
- viability, T/C (second compound 3.16 µM, first compound 1 µM): 8.79%
- viability, T/C (second compound 3.16 µM, first compound 3.16 µM): 6.05%
- viability, T/C (second compound 3.16 µM, first compound 10 µM): 1.23%
- viability, T/C [41]: 9.19%
- viability, T/C [42]: 6.14%
- viability, T/C (second compound 10 µM, first compound 0.316 µM): 3.65%
- viability, T/C (second compound 10 µM, first compound 1 µM): 3.37%
- viability, T/C (second compound 10 µM, first compound 3.16 µM): 2.05%
- viability, T/C (second compound 10 µM, first compound 10 µM): 0.32%

Source: PubChem BioAssay AID1963976 (Molecular Pharmacology Branch, DTP, NCI, 2024)
